Source: ChEMBL document CHEMBL1926563, “Synthesis, antimicrobial, antimycobacterial and structure-activity relationship of substituted pyrazolo-, isoxazolo-, pyrimido- and mercaptopyrimidocyclohepta[b]indoles” (2012)
Values after ≈ are worked out from the molar mass of the structure shown. Active and inactive are the calls of the source. No cut-off for these calls is given here.

Tests used:
[1] = system: Mycobacterium tuberculosis; assay: Antimycobacterial activity against Mycobacterium tuberculosis H37Rv after 7 days by resazurin microtiter plate assay; type: functional; details: 168 h
[2] = system: Staphylococcus aureus; assay: Antibacterial activity against Staphylococcus aureus NCIM 5021 assessed as zone of inhibition at 100 ug/disc after 24 hrs by disk diffusion method; type: functional; details: NCIM 5021, 24 h, read-out: DIZ
[3] = system: Mycobacterium tuberculosis; assay: Antimycobacterial activity against Mycobacterium tuberculosis H37Rv at 1.5 to 50 ug/ml after 7 days by resazurin microtiter plate assay; type: functional, organism-based
[4] = system: Staphylococcus aureus; assay: Antibacterial activity against Staphylococcus aureus NCIM 5021 assessed as zone of inhibition at 200 ug/disc after 24 hrs by disk diffusion method; type: functional; details: NCIM 5021, 24 h, read-out: DIZ
[5] = system: Curvularia lunata; assay: Antifungal activity against Curvularia lunata NCIM 716 assessed as zone of inhibition at 200 ug/disc after 48 hrs by disk diffusion method; type: functional; details: NCIM 716, 48 h, read-out: DIZ
[6] = system: Bacillus subtilis; assay: Antibacterial activity against Bacillus subtilis NCIM 2063 assessed as zone of inhibition at 100 ug/disc after 24 hrs by disk diffusion method; type: functional; details: NCIM 2063, 24 h, read-out: DIZ
[7] = system: Fusarium solani; assay: Antifungal activity against Fusarium solani NCIM 1330 assessed as zone of inhibition at 100 ug/disc after 48 hrs by disk diffusion method; type: functional; details: NCIM 1330, 48 h, read-out: DIZ
[8] = system: Proteus vulgaris; assay: Antibacterial activity against Proteus vulgaris NCIM 2027 assessed as zone of inhibition at 100 ug/disc after 24 hrs by disk diffusion method; type: functional; details: NCIM 2027, 24 h, read-out: DIZ
[9] = system: Klebsiella pneumoniae; assay: Antibacterial activity against Klebsiella pneumoniae NCIM 2957 assessed as zone of inhibition at 200 ug/disc after 24 hrs by disk diffusion method; type: functional; details: NCIM 2957, 24 h, read-out: DIZ
[10] = system: Proteus vulgaris; assay: Antibacterial activity against Proteus vulgaris NCIM 2027 assessed as zone of inhibition at 200 ug/disc after 24 hrs by disk diffusion method; type: functional; details: NCIM 2027, 24 h, read-out: DIZ
[11] = system: Fusarium solani; assay: Antifungal activity against Fusarium solani NCIM 1330 assessed as zone of inhibition at 200 ug/disc after 48 hrs by disk diffusion method; type: functional; details: NCIM 1330, 48 h, read-out: DIZ
[12] = system: Bacillus subtilis; assay: Antibacterial activity against Bacillus subtilis NCIM 2063 assessed as zone of inhibition at 200 ug/disc after 24 hrs by disk diffusion method; type: functional; details: NCIM 2063, 24 h, read-out: DIZ
[13] = system: Aspergillus niger; assay: Antifungal activity against Aspergillus niger NCIM 596 assessed as zone of inhibition at 100 ug/disc after 48 hrs by disk diffusion method; type: functional; details: NCIM 596, 48 h, read-out: DIZ
[14] = system: Curvularia lunata; assay: Antifungal activity against Curvularia lunata NCIM 716 assessed as zone of inhibition at 100 ug/disc after 48 hrs by disk diffusion method; type: functional; details: NCIM 716, 48 h, read-out: DIZ
[15] = system: Klebsiella pneumoniae; assay: Antibacterial activity against Klebsiella pneumoniae NCIM 2957 assessed as zone of inhibition at 100 ug/disc after 24 hrs by disk diffusion method; type: functional; details: NCIM 2957, 24 h, read-out: DIZ
[16] = system: Aspergillus niger; assay: Antifungal activity against Aspergillus niger NCIM 596 assessed as zone of inhibition at 200 ug/disc after 48 hrs by disk diffusion method; type: functional; details: NCIM 596, 48 h, read-out: DIZ

Compound: Cc1cccc2c3c([nH]c12)-c1nc(S)ncc1CCC3
- MIC [1]: 50 µg/mL (≈ 178 µM)

Compound: c1ccc(-n2ncc3c2-c2[nH]c4ccccc4c2CCC3)cc1
- zone of inhibition at 100 µg/disc [2]: 25 mm
- MIC [3]: inactive
- zone of inhibition at 200 µg/disc [4]: 27 mm
- zone of inhibition at 200 µg/disc [5]: 31 mm
- zone of inhibition at 100 µg/disc [6]: 24 mm
- zone of inhibition at 100 µg/disc [7]: 28 mm
- zone of inhibition at 100 µg/disc [8]: 20 mm
- zone of inhibition at 200 µg/disc [9]: 24 mm
- zone of inhibition at 200 µg/disc [10]: 23 mm
- zone of inhibition at 200 µg/disc [11]: 33 mm
- zone of inhibition at 200 µg/disc [12]: 26 mm
- zone of inhibition at 100 µg/disc [13]: 26 mm
- zone of inhibition at 100 µg/disc [14]: 29 mm
- zone of inhibition at 100 µg/disc [15]: 21 mm
- zone of inhibition at 200 µg/disc [16]: 30 mm

Compound: Cc1ccc2c3c([nH]c2c1)-c1n[nH]cc1CCC3
- MIC [1]: 25 µg/mL (≈ 105 µM)

Compound: c1ccc2c3c([nH]c2c1)-c1nocc1CCC3
- zone of inhibition at 100 µg/disc [2]: 26 mm
- MIC [3]: inactive
- zone of inhibition at 200 µg/disc [4]: 27 mm
- zone of inhibition at 200 µg/disc [5]: 30 mm
- zone of inhibition at 100 µg/disc [6]: 26 mm
- zone of inhibition at 100 µg/disc [7]: 28 mm
- zone of inhibition at 100 µg/disc [8]: 24 mm
- zone of inhibition at 200 µg/disc [9]: 27 mm
- zone of inhibition at 200 µg/disc [10]: 25 mm
- zone of inhibition at 200 µg/disc [11]: 31 mm
- zone of inhibition at 200 µg/disc [12]: 29 mm
- zone of inhibition at 100 µg/disc [13]: 26 mm
- zone of inhibition at 100 µg/disc [14]: 28 mm
- zone of inhibition at 100 µg/disc [15]: 25 mm
- zone of inhibition at 200 µg/disc [16]: 29 mm

Compound: Cc1ccc2c3c([nH]c2c1)-c1nc(O)ncc1CCC3
- MIC [3]: inactive

Compound: O=C1/C(=C/O)CCCc2c1[nH]c1ccc(Cl)cc21
- zone of inhibition at 100 µg/disc [2]: 31 mm
- zone of inhibition at 200 µg/disc [4]: 33 mm
- zone of inhibition at 200 µg/disc [5]: 30 mm
- MIC [1]: 25 µg/mL (≈ 95.5 µM)
- zone of inhibition at 100 µg/disc [6]: 28 mm
- zone of inhibition at 100 µg/disc [7]: 29 mm
- zone of inhibition at 100 µg/disc [8]: 25 mm
- zone of inhibition at 200 µg/disc [9]: 30 mm
- zone of inhibition at 200 µg/disc [10]: 28 mm
- zone of inhibition at 200 µg/disc [11]: 30 mm
- zone of inhibition at 200 µg/disc [12]: 32 mm
- zone of inhibition at 100 µg/disc [13]: 25 mm
- zone of inhibition at 100 µg/disc [14]: 27 mm
- zone of inhibition at 100 µg/disc [15]: 28 mm
- zone of inhibition at 200 µg/disc [16]: 31 mm

Compound: Cc1cccc2c3c([nH]c12)-c1n[nH]cc1CCC3
- MIC [1]: 25 µg/mL (≈ 105 µM)

Compound: Cc1cccc2c3c([nH]c12)-c1nc(O)ncc1CCC3
- MIC [3]: inactive

Compound: Cc1cccc2c3c([nH]c12)C(=O)/C(=C/O)CCC3
- MIC [1]: 50 µg/mL (≈ 207 µM)

Compound: Cc1ccc2[nH]c3c(c2c1)CCCc1cnc(O)nc1-3
- zone of inhibition at 100 µg/disc [2]: 23 mm
- zone of inhibition at 200 µg/disc [4]: 25 mm
- zone of inhibition at 200 µg/disc [5]: 21 mm
- MIC [1]: 50 µg/mL (≈ 188 µM)
- zone of inhibition at 100 µg/disc [6]: 21 mm
- zone of inhibition at 100 µg/disc [7]: 14 mm
- zone of inhibition at 100 µg/disc [8]: 19 mm
- zone of inhibition at 200 µg/disc [9]: 23 mm
- zone of inhibition at 200 µg/disc [10]: 21 mm
- zone of inhibition at 200 µg/disc [11]: 19 mm
- zone of inhibition at 200 µg/disc [12]: 24 mm
- zone of inhibition at 100 µg/disc [13]: 15 mm
- zone of inhibition at 100 µg/disc [14]: 18 mm
- zone of inhibition at 100 µg/disc [15]: 21 mm
- zone of inhibition at 200 µg/disc [16]: 18 mm

Compound: Cc1ccc2[nH]c3c(c2c1)CCCc1cnc(S)nc1-3
- zone of inhibition at 100 µg/disc [2]: 13 mm
- zone of inhibition at 200 µg/disc [4]: 15 mm
- zone of inhibition at 200 µg/disc [5]: 20 mm
- MIC [1]: 50 µg/mL (≈ 178 µM)
- zone of inhibition at 100 µg/disc [6]: 14 mm
- zone of inhibition at 100 µg/disc [7]: 13 mm
- zone of inhibition at 100 µg/disc [8]: 10 mm
- zone of inhibition at 200 µg/disc [9]: 12 mm
- zone of inhibition at 200 µg/disc [10]: 12 mm
- zone of inhibition at 200 µg/disc [11]: 16 mm
- zone of inhibition at 200 µg/disc [12]: 16 mm
- zone of inhibition at 100 µg/disc [13]: 14 mm
- zone of inhibition at 100 µg/disc [14]: 16 mm
- zone of inhibition at 100 µg/disc [15]: 11 mm
- zone of inhibition at 200 µg/disc [16]: 16 mm

Compound: Cc1ccc2c3c([nH]c2c1)-c1nocc1CCC3
- MIC [1]: 25 µg/mL (≈ 105 µM)

Compound: Cc1cccc2c3c([nH]c12)-c1nocc1CCC3
- MIC [1]: 25 µg/mL (≈ 105 µM)

Compound: Cc1ccc2c3c([nH]c2c1)-c1nc(S)ncc1CCC3
- MIC [1]: 50 µg/mL (≈ 178 µM)

Compound: O=C1/C(=C/O)CCCc2c1[nH]c1ccccc21
- zone of inhibition at 100 µg/disc [2]: 24 mm
- zone of inhibition at 200 µg/disc [4]: 26 mm
- zone of inhibition at 200 µg/disc [5]: 25 mm
- MIC [1]: 50 µg/mL (≈ 220 µM)
- zone of inhibition at 100 µg/disc [6]: 26 mm
- zone of inhibition at 100 µg/disc [7]: 21 mm
- zone of inhibition at 100 µg/disc [8]: 23 mm
- zone of inhibition at 200 µg/disc [9]: 26 mm
- zone of inhibition at 200 µg/disc [10]: 25 mm
- zone of inhibition at 200 µg/disc [11]: 23 mm
- zone of inhibition at 200 µg/disc [12]: 27 mm
- zone of inhibition at 100 µg/disc [13]: 23 mm
- zone of inhibition at 100 µg/disc [14]: 24 mm
- zone of inhibition at 100 µg/disc [15]: 24 mm
- zone of inhibition at 200 µg/disc [16]: 25 mm

Compound: Cc1ccc2c3c([nH]c2c1)-c1c(cnn1-c1ccccc1)CCC3
- MIC [1]: 25 µg/mL (≈ 79.8 µM)

Compound: Cc1cccc2c3c([nH]c12)-c1c(cnn1-c1ccccc1)CCC3
- MIC [1]: 25 µg/mL (≈ 79.8 µM)

Compound: Cc1ccc2c3c([nH]c2c1)C(=O)/C(=C/O)CCC3
- MIC [3]: inactive

Compound: Cc1ccc2[nH]c3c(c2c1)CCCc1c[nH]nc1-3
- zone of inhibition at 100 µg/disc [2]: 30 mm
- zone of inhibition at 200 µg/disc [4]: 32 mm
- zone of inhibition at 200 µg/disc [5]: 36 mm
- MIC [1]: 50 µg/mL (≈ 211 µM)
- zone of inhibition at 100 µg/disc [6]: 31 mm
- zone of inhibition at 100 µg/disc [7]: 34 mm
- zone of inhibition at 100 µg/disc [8]: 24 mm
- zone of inhibition at 200 µg/disc [9]: 30 mm
- zone of inhibition at 200 µg/disc [10]: 25 mm
- zone of inhibition at 200 µg/disc [11]: 37 mm
- zone of inhibition at 200 µg/disc [12]: 33 mm
- zone of inhibition at 100 µg/disc [13]: 31 mm
- zone of inhibition at 100 µg/disc [14]: 33 mm
- zone of inhibition at 100 µg/disc [15]: 28 mm
- zone of inhibition at 200 µg/disc [16]: 34 mm

Compound: Cc1ccc2[nH]c3c(c2c1)CCCc1conc1-3
- zone of inhibition at 100 µg/disc [2]: 29 mm
- zone of inhibition at 200 µg/disc [4]: 31 mm
- zone of inhibition at 200 µg/disc [5]: 32 mm
- MIC [1]: 50 µg/mL (≈ 210 µM)
- zone of inhibition at 100 µg/disc [6]: 30 mm
- zone of inhibition at 100 µg/disc [7]: 31 mm
- zone of inhibition at 100 µg/disc [8]: 26 mm
- zone of inhibition at 200 µg/disc [9]: 29 mm
- zone of inhibition at 200 µg/disc [10]: 28 mm
- zone of inhibition at 200 µg/disc [11]: 34 mm
- zone of inhibition at 200 µg/disc [12]: 32 mm
- zone of inhibition at 100 µg/disc [13]: 28 mm
- zone of inhibition at 100 µg/disc [14]: 29 mm
- zone of inhibition at 100 µg/disc [15]: 26 mm
- zone of inhibition at 200 µg/disc [16]: 31 mm

Compound: Cc1ccc2[nH]c3c(c2c1)CCC/C(=C\O)C3=O
- zone of inhibition at 100 µg/disc [2]: 26 mm
- zone of inhibition at 200 µg/disc [4]: 29 mm
- zone of inhibition at 200 µg/disc [5]: 28 mm
- MIC [1]: 25 µg/mL (≈ 104 µM)
- zone of inhibition at 100 µg/disc [6]: 28 mm
- zone of inhibition at 100 µg/disc [7]: 23 mm
- zone of inhibition at 100 µg/disc [8]: 22 mm
- zone of inhibition at 200 µg/disc [9]: 28 mm
- zone of inhibition at 200 µg/disc [10]: 25 mm
- zone of inhibition at 200 µg/disc [11]: 26 mm
- zone of inhibition at 200 µg/disc [12]: 30 mm
- zone of inhibition at 100 µg/disc [13]: 23 mm
- zone of inhibition at 100 µg/disc [14]: 26 mm
- zone of inhibition at 100 µg/disc [15]: 25 mm
- zone of inhibition at 200 µg/disc [16]: 27 mm
